The source of these data is ChEMBL document CHEMBL1201862, “PubChem BioAssay data set” (2004).

Test systems include NCI/ADR-RES; T47D; Hs-578T; BT-549.
Test in all cases: NCI tumour cell line growth inhibition, 48 h

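Where inhibition never reached the appropriate level, the endpoint shown equals the highest concentration tested. Otherwise, values were interpolated linearly from a five-concentration, 48-hour dose response in 96-well plates. The concentration for 50% growth inhibition is given as GI50.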 Activity calls are given as the source filed them. No stated cut-off is given here; in the data, active = GI50 up to about 1.1 µM and inactive = higher. Starred links: 1 amine or outer side, 2 acyl side, 3 side chain; linkers in the order of their positions; H or OH if unused. Non-standard residues stand in square brackets, D forms with d. Residues, ends and D or L forms follow the SMILES beside them. X4 = C[C@H](N[*:1])C(=O)C(C)(C)C(=O)[*:2]; Hmpa(2S,3S) = CC[C@H](C)[C@H](O)C(=O)O; NMeY = CN[C@@H](Cc1ccc(O)cc1)C(=O)O; NMeL = CN[C@@H](CC(C)C)C(=O)O; NMeV = CN[C@H](C(=O)O)C(C)C; βAla = NCCC(=O)O

With `C1=C2C3=[N+](CCCC3)CC2Cc2ccsc21` (centres undefined), the GI50 with NCI/ADR-RES is > 100 µM (inactive); in the assay with T47D it was 22.8 µM (inactive); in the assay with Hs-578T, > 100 µM (inactive); in the assay on BT-549, 81.3 µM (inactive).

Consider `O=P1(c2ccccc2)c2ccccc2CCc2ccccc21`, for which the GI50 with Hs-578T was > 100 µM (inactive); in the assay on BT-549, 99.5 µM (inactive).

`C=C(Cl)[C@](Cl)(CBr)CC[C@@H](Br)C(C)(C)Cl` [HALOMON]: the GI50 in the assay on NCI/ADR-RES is 1.69 µM (inactive); in the assay on T47D it was 3.18 µM (inactive); in the assay on Hs-578T it was 0.611 µM (active); in the assay with BT-549 it was 1.29 µM (inactive).

Turning to `CCOP(=O)(OCC)C(c1ccc(F)cc1)N(C(=O)NC(F)(F)F)c1cccc(C(F)(F)F)c1` (centres undefined), the GI50 with NCI/ADR-RES was 82.8 µM (inactive); with T47D, 83.9 µM (inactive); in the assay on Hs-578T, 59.8 µM (inactive); with BT-549, > 100 µM (inactive).

As for `Cc1cccc(N2CCN(S(=O)(=O)c3ccc(Cl)cc3)C2=N)c1C`, the GI50 in the assay with NCI/ADR-RES, with T47D and with BT-549 was > 100 µM (inactive) throughout.

On to `Cc1c(C#N)c(=N)oc2ccccc12`, for which the GI50 with NCI/ADR-RES is > 100 µM (inactive); with T47D, 75.7 µM (inactive); in the assay with Hs-578T, > 100 µM (inactive); with BT-549 it was > 100 µM (inactive).

Regarding `CC(C)(C)C1=C(Br)C(F)(C(C)(C)C)OP1(=O)c1ccccc1` (centres undefined), the results for the GI50 in the assay with NCI/ADR-RES, with T47D and in the assay with Hs-578T were 16.4 µM (inactive), 15.9 µM (inactive) and 29.6 µM (inactive), respectively.

For `CN1C(=O)c2ccccc2NC(=O)C12O[C@@H]2c1cccc(O)c1` (some centres undefined), the GI50 with NCI/ADR-RES, in the assay with T47D and with Hs-578T was > 100 µM (inactive) each time.

`N#Cc1nnn(C2CCCCC2)c1O`: the GI50 with NCI/ADR-RES, with T47D, in the assay with Hs-578T and in the assay on BT-549 was > 100 µM (inactive) each time.

On to `CC(=O)/C(=C\NC(N)=S)C(=O)Nc1ccccc1C`, for which the GI50 with NCI/ADR-RES, in the assay with T47D, in the assay with Hs-578T and in the assay on BT-549 was > 100 µM (inactive) throughout.

In the case of `[N-]=[N+]=CC(=O)OC1Cc2ccccc2C1`, the GI50 in the assay with NCI/ADR-RES was > 100 µM (inactive); in the assay with T47D it was > 100 µM (inactive); with Hs-578T, 42.9 µM (inactive); with BT-549 it was > 100 µM (inactive).

On to `Cc1cc2ncn(CC(=O)O)c2cc1C`, for which the GI50 with NCI/ADR-RES, in the assay with T47D, in the assay on Hs-578T and in the assay on BT-549 was > 100 µM (inactive) throughout.

In the case of `[N-]=[N+]=Nc1ccccc1C(=O)N1C(=O)c2ccccc2C(=O)N(C(=O)c2ccccc2N=[N+]=[N-])c2ccccc21`, the GI50 with NCI/ADR-RES was 40.8 µM (inactive); in the assay on T47D, 23.1 µM (inactive); in the assay on Hs-578T, 35.6 µM (inactive); with BT-549 it was 55.2 µM (inactive).

In the case of `CN(C)c1ccc(/C=C/c2nc3ccccc3s2)cc1`, the GI50 in the assay on NCI/ADR-RES was > 100 µM (inactive); with T47D, > 100 µM (inactive); with Hs-578T it was > 100 µM (inactive); with BT-549 it was 80 µM (inactive).

In the case of `CC(C)=CCC[C@@H](C)C1=C(O)C(=O)C(C)=C(c2c(I)c(=O)n(C)c(=O)n2C)C1=O`, the GI50 was > 100 µM (inactive) in the assay on NCI/ADR-RES, > 100 µM (inactive) with T47D, 76.6 µM (inactive) with Hs-578T and > 100 µM (inactive) in the assay on BT-549.

On to `COC(=O)[C@H](Cc1c[nH]c2ccccc12)NP(=O)(O)OC[C@H]1O[C@@H](n2cc(C)c(=O)[nH]c2=O)C[C@@H]1N=[N+]=[N-]`, for which the GI50 in the assay on NCI/ADR-RES, in the assay on T47D, in the assay with Hs-578T and in the assay on BT-549 was > 100 µM (inactive) each time.

As to `O=C(O)c1cnc(-n2[nH]c3c(c2=O)CCCC3)[nH]c1=O`, the GI50 with NCI/ADR-RES, in the assay with T47D, in the assay on Hs-578T and in the assay with BT-549 was > 100 µM (inactive) throughout.

Take `CC1(C)C(O)C[C@]23CCC[C@](C)(C[C@@H](O)C12)C3` (some centres undefined): the GI50 in the assay with NCI/ADR-RES, in the assay with Hs-578T and in the assay with BT-549 was > 100 µM (inactive) in each case.

Turning to `CS(=O)(=O)O[C@H]1[C@H](O)c2ccccc2[C@@H]1N=[N+]=[N-]`, the GI50 in the assay with NCI/ADR-RES and in the assay with BT-549 was > 100 µM (inactive) in each case.

With `O=C1Nc2ccccc2/C1=N/Nc1ccccc1[N+](=O)[O-]`, the GI50 was 17 µM (inactive) in the assay on NCI/ADR-RES, 38.5 µM (inactive) in the assay on T47D, 29.2 µM (inactive) with Hs-578T and 49.1 µM (inactive) in the assay with BT-549.

On to `COC(=O)c1cc2c(c3c1CC(Cc1ccccc1)C3=O)CCC2` (centres undefined), for which the GI50 with NCI/ADR-RES was > 100 µM (inactive); in the assay on T47D, 25.5 µM (inactive); in the assay on Hs-578T it was 45.9 µM (inactive).

In the case of `Cc1nc2ccccc2c(=O)n1NC(=O)c1ccc([N+](=O)[O-])cc1`, the GI50 in the assay on T47D, in the assay on Hs-578T and in the assay with BT-549 was > 100 µM (inactive) each time.

For `CCOC(=O)/C=C(/C(=O)OCC)n1cc(C)c(=O)n(Cc2cnnn2CCCCOC(C)=O)c1=O`, the GI50 with NCI/ADR-RES was 26.7 µM (inactive); in the assay on T47D, 24 µM (inactive); in the assay with Hs-578T, 45.5 µM (inactive); in the assay on BT-549, 10.5 µM (inactive).

For `COc1cc(C(=O)Oc2c(C#N)sc3c2c(=O)n(-c2ccccc2)c(=S)n3-c2ccccc2)cc(OC)c1OC`, the results for the GI50 in the assay with NCI/ADR-RES, in the assay with T47D and in the assay on Hs-578T were 16.6 µM (inactive), 25.5 µM (inactive) and 8.26 µM (inactive), respectively.

`COc1cc(C(c2c(O)c3ccccc3oc2=O)c2c(O)c3ccccc3oc2=O)ccc1O`: the GI50 with NCI/ADR-RES is 28.6 µM (inactive); in the assay with T47D, 17.9 µM (inactive); in the assay with Hs-578T it was 40.4 µM (inactive); in the assay with BT-549 it was 19.1 µM (inactive).

As to `CC[C@@H]1/C=C/C=C/C[C@H](C)[C@@H](O)[C@](C)(O)C(=O)[C@H](C)[C@@H](O)[C@H](C)C(=O)[C@H](C)[C@@H](O)[C@H](C)/C=C/C(=O)O[C@H]2[C@@H](C)[C@@H](CC1)O[C@]1(O[C@H](CC(C)O)[C@H](C)CC1=O)[C@@H]2C` (some centres undefined), the GI50 was 0.598 µM (active) with NCI/ADR-RES, < 0.0025 µM (active) in the assay with T47D, 5.36 µM (inactive) in the assay on Hs-578T and 3.75 µM (inactive) with BT-549.

With `CC(C)(C)C(=O)Nc1c(C=O)ccc2[nH]cnc12`, the GI50 in the assay with NCI/ADR-RES, in the assay on T47D and with BT-549 was > 100 µM (inactive) throughout.

For `C1C2CC3CC1CC(Nc1nc(NC45CC6CC(CC(C6)C4)C5)nc(NC45CC6CC(CC(C6)C4)C5)n1)(C2)C3`, the GI50 is 9.31 µM (inactive) in the assay on NCI/ADR-RES, 72.1 µM (inactive) in the assay with T47D, 43.4 µM (inactive) in the assay on Hs-578T and > 68.2 µM (inactive) in the assay with BT-549.

For the compound `O=C(CN1CCOCC1)CC(O)(C(F)(F)F)C(F)(F)F`, the GI50 in the assay with NCI/ADR-RES is > 100 µM (inactive); in the assay with T47D, 42.4 µM (inactive); in the assay on Hs-578T, 35.6 µM (inactive); with BT-549, > 100 µM (inactive).

With `COC(=O)c1csc(-c2nc(CCNC(=O)OC(C)(C)C)sc2Br)n1`, the GI50 in the assay with NCI/ADR-RES, with Hs-578T and with BT-549 was > 100 µM (inactive) in each case.

With `CC[C@H](C)[C@@H]1OC(=O)CCNC(=O)[C@@H](C)NC(=O)C(C)(C)C(=O)[C@H](C)NC(=O)[C@H](Cc2ccc(OC)cc2)N(C)C(=O)[C@H](C(C)C)N(C)C(=O)CNC(=O)[C@H](CC(C)C)N(C)C(=O)CNC1=O` (cyclo(G[NMeL]G[NMeV][NMeY](Me)[X4][dA][βAla][Hmpa(2S,3S)])), the GI50 in the assay on NCI/ADR-RES was 26.4 µM (inactive); in the assay with T47D, 2.19 µM (inactive); in the assay on Hs-578T, 0.916 µM (active); with BT-549, 2.81 µM (inactive).

Regarding `COC(=O)c1c(C(=O)OC)c2ccccn2c1-c1cc(C)cc2c1C(=O)C=CC2=O`, the GI50 in the assay on NCI/ADR-RES was 15.6 µM (inactive); in the assay on T47D it was 4.21 µM (inactive); with Hs-578T, 12.9 µM (inactive).

As to `CC(=O)C1C(=O)C(C(C)=O)C2C3C=CC(C3)C12` (centres undefined), the GI50 in the assay with NCI/ADR-RES, with T47D, with Hs-578T and in the assay with BT-549 was > 100 µM (inactive) in each case.

As for `CC1C2CC(C/C2=N/O)C1(C)C` (centres undefined), the GI50 with T47D, in the assay on Hs-578T and with BT-549 was > 100 µM (inactive) each time.

As to `CCOc1cccc(/C=N/N=C2\C(=O)Nc3c(Cl)cc(Cl)cc32)c1O`, the GI50 was 33.3 µM (inactive) with NCI/ADR-RES, > 100 µM (inactive) with Hs-578T and 39.6 µM (inactive) with BT-549.

For the compound `CS(=O)(=O)c1nc(-c2cc3c(c(S(C)(=O)=O)n2)CCC3)cc2c1CCCC2`, the results for the GI50 with NCI/ADR-RES, in the assay with Hs-578T and in the assay on BT-549 were 48.6 µM (inactive), 2.55 µM (inactive) and 32.1 µM (inactive), respectively.

Consider `COC(=O)C1c2cc3c(cc2C(OC2OC(C)C(OC)C(C)(OC)C2OC)CC1(C)O)C(=O)c1c(O)cc2c(c1C3=O)OC1OC2(C)C(O)C([N+](C)(C)[O-])C1O` (centres undefined), for which the GI50 was 0.13 µM (active) in the assay with T47D, 0.165 µM (active) with Hs-578T and 0.179 µM (active) in the assay with BT-549.

For `COc1ccc(-n2c(=O)c3nc(S)[nH]c3n(-c3ccc(OC)cc3)c2=S)cc1`, the GI50 in the assay with NCI/ADR-RES, in the assay on T47D and with BT-549 was > 100 µM (inactive) throughout.

In the case of `NC(=O)C(=O)C(c1ccccc1)S(=O)(=O)Cc1ccccc1` (centres undefined), the GI50 in the assay on NCI/ADR-RES, with T47D and with BT-549 was > 100 µM (inactive) throughout.

Take `CC(=O)O[C@H]1C(=O)[C@@]2(C)C(C(OC(=O)c3ccccc3)[C@]3(O)CC(OC(=O)C(O)C(NC(=O)c4cccc(Cl)c4)c4ccccc4)C(C)=C1C3(C)C)[C@]1(OC(C)=O)CO[C@@H]1C[C@@H]2O` (some centres undefined): the GI50 in the assay on NCI/ADR-RES is 5.28 µM (inactive); in the assay on BT-549, 6.58 µM (inactive).

As for `ClCCN1CCO/C1=N/c1ccc2c(c1)CCCC2`, the GI50 with NCI/ADR-RES is 18.1 µM (inactive); in the assay with T47D, 8.51 µM (inactive); in the assay with Hs-578T, 13.9 µM (inactive).

Take `O=c1c2sc(=S)n(-c3ccc(F)cc3)c2ncn1/N=C/c1ccc(F)cc1F`: the GI50 is 33 µM (inactive) in the assay with NCI/ADR-RES, 29.1 µM (inactive) in the assay on Hs-578T and 15.4 µM (inactive) in the assay with BT-549.
